Earlier results in patent publication US4894388A, “Glycosidase inhibitors and use thereof” (priority 1988, dated 1990).

Test system: human immunodeficiency virus (HIV)
Conditions: background literature; cited from earlier work

SMILES | inhibition of HIV synctium formation and virus replication (in words)
OCC1NC(CO)C(O)C1O (stereo not drawn) [2,5-dihydroxymethyl-3,4-dihydroxypyrrolidine] | found to inhibit human immunodeficiency virus (HIV) synctium formation and virus replication
OC[C@H]1NC[C@H](O)[C@@H](O)[C@@H]1O [1-deoxynojirimycin (DNJ), 1-deoxynojirimycin] | found to inhibit human immunodeficiency virus (HIV) synctium formation and virus replication
O[C@H]1[C@H](O)[C@@H](O)CN2CC[C@H](O)[C@H]12 [castanospermine] | found to inhibit human immunodeficiency virus (HIV) synctium formation and virus replication
